{
  "source": "patent US11633415B2",
  "about": "“Compounds and methods useful for treating or preventing cancers” (priority 2017, dated 2023)",
  "key": {"[1]": {"target": "T1, CSNK1A1 (Homo sapiens (Human), UniProt P48729)", "T1 sequence (P48729 whole entry)": "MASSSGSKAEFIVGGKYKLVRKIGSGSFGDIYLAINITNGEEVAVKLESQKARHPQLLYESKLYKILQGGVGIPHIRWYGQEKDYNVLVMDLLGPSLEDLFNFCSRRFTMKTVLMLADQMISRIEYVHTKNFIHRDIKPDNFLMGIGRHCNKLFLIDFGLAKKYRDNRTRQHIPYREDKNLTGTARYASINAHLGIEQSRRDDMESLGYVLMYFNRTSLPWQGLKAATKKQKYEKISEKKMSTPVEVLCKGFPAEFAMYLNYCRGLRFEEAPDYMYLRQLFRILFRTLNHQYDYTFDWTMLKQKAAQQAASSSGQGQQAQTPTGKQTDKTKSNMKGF", "experiment": "Kinase enzymatic IC50 (Carna Biosciences mobility shift assay)", "format": "biochemical", "procedure": "Enzymatic assays were performed using a mobility shift assay on the LabChip system. Purified kinase protein was incubated with ATP, substrate, and assay buffer (20 mM Hepes—pH 7.5; 5 mM MgCl2, and 0.01% Triton X-100). The assay reaction was initiated with 5 μM ATP and with each compound present. Compounds were tested at the KM,ATP for the protein target (GST-tagged full-length human CK1α, available from Carna Biosciences, Japan) or over a range of ATP concentrations between 5 μM and 9 μM. […] AC50 values were determined using phosphorylated and unphosphorylated substrates."}, "[2]": {"target": "protein kinase A (PKA)", "details": "range stated jointly for PKA and insulin receptor kinase; cited from earlier work"}, "[3]": {"target": "insulin receptor kinase (Homo sapiens (Human), UniProt P06213)", "sequence (P06213 28-1382)": "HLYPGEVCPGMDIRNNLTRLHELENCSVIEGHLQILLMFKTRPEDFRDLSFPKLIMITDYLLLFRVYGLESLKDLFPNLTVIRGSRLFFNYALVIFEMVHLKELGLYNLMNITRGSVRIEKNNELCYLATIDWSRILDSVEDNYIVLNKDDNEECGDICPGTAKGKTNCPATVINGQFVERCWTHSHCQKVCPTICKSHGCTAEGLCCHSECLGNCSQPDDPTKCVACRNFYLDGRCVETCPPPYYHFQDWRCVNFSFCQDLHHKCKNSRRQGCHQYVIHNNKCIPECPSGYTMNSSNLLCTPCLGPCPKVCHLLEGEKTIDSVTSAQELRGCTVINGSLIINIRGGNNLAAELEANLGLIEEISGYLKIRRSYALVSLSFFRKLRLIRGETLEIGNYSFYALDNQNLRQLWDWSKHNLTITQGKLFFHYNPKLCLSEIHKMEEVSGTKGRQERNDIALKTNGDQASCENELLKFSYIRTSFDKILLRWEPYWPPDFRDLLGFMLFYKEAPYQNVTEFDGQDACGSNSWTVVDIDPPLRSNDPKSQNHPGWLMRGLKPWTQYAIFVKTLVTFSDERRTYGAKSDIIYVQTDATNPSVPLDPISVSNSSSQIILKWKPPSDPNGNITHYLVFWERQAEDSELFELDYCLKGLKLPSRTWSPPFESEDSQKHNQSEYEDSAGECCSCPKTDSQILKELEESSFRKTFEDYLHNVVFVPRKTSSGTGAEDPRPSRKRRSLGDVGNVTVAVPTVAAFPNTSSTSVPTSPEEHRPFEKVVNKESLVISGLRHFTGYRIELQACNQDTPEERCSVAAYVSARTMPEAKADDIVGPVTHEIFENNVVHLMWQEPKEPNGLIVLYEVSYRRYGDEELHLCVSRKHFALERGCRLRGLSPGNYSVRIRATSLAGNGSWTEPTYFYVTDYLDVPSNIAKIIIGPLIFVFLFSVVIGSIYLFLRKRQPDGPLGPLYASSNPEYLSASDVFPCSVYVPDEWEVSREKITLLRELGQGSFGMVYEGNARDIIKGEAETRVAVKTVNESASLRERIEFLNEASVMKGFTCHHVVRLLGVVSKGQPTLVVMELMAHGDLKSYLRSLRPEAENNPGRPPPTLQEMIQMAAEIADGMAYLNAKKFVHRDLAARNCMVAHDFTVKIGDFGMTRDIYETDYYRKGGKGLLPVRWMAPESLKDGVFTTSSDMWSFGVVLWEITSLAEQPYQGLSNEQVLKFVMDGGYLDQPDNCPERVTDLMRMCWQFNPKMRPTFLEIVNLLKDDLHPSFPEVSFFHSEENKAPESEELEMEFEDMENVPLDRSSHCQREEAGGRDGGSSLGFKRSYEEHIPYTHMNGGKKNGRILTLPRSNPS", "details": "range stated jointly for PKA and insulin receptor kinase; cited from earlier work"}, "[4]": {"target": "CSNK1D (Homo sapiens (Human), UniProt P48730)", "sequence (P48730 whole entry)": "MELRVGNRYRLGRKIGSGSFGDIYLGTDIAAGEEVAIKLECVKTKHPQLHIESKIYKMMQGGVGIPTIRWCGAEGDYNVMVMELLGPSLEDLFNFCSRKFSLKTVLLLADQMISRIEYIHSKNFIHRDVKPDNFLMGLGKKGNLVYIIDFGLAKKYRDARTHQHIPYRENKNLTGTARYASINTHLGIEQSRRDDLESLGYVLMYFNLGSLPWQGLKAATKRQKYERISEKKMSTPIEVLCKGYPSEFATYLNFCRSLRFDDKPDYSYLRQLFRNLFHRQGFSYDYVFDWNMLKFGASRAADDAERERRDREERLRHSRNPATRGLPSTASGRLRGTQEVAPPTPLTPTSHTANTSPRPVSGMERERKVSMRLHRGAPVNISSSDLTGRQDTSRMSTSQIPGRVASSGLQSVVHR", "experiment": "Kinomescan competition binding assay, confirmatory Kd", "details": "confirmatory testing", "excerpt": "(§1) The Kinomescan assay is a site-directed small molecule competition binding assay to quantitatively measure interactions between test compounds and more than 450 kinase assays. The assay employs DNA-tagged kinase proteins and a bead-immobilized kinase ligand. Active test compounds compete with the immobilized ligand and decrease the amount of bead-bound kinase. The assay result is detected using a multiplex quantitative PCR approach."}, "[5]": {"target": "T1, CSNK1A1", "experiment": "Kinomescan competition binding assay, confirmatory Kd", "excerpt": "as §1, with “Active test compounds compete with the immobilized ligand and decrease the amount of bead-bound kinase.” left out"}, "[6]": {"tested_on": "HT-29", "experiment": "Cell viability by ATP abundance at 5 days (Cell Titer Glo)", "format": "cell-based", "procedure": "In addition to its role as a target in hematologic malignancies, CSNK1A1 expression is also essential to certain epithelial cancer cell lines. […] Results from each independent RNA interference construct were summarized into a single gene-level score, and the colorectal distribution of sensitivities was evaluated against the other lineages by the Mann-Whitney test as shown in FIG. 4A. […] Cell viability was assessed by ATP abundance at 5 days using the Cell Titer Glo assay.\nCell viability assays were conducted against colorectal carcinoma cell line HT29. Cells were plated in wells and at 24 hours after plating, compounds were added to determine their effect on cell viability at various dosages. After 48 hours from compound administration, the cell viability was determined and the IC50 values were calculated. […] FIG. 4B illustrates the results of another cell viability measurement and IC50 value for Compound 1 assessed by ATP abundance on HT29 at 5 days."}, "[7]": {"tested_on": "more than 450 kinase assays", "experiment": "Kinome-wide profiling using the Kinomescan assay", "format": "binding", "excerpt": "as §1"}, "[8]": {"details": "Table 1, CSNK1A1 inhibitors, read-out: IC50"}},
  "note": "Like-named read-outs stand apart in the source and are kept apart here.",
  "data": [
    {"smiles": "Nc1ncnc2c1c(I)cn2[C@@H]1O[C@H](CO)[C@@H](O)[C@H]1O", "note": "[5-iodotubercidin, 5-Iodo-7-β-D-ribofuranosyl-7H-pyrrolo[2,3-d]pyrimidin-4-amine, reference compound]", "values": [
      {"measurement": "IC50", "setting": "[1]; [8]", "value": 287, "unit": "nM"},
      {"measurement": "IC50", "setting": "[1]; known inhibitors, background text (rounded Table 1 values), read-out: IC50 against CSNK1A1", "value": 290, "unit": "nM"},
      {"measurement": "IC50", "setting": "[2]", "value": "400 to 28000", "unit": "nM"},
      {"measurement": "IC50", "setting": "[3]", "value": "400 to 28000", "unit": "nM"}
    ]},
    {"smiles": "CCN1CCN(c2nc3ccccc3nc2C(C#N)C(=O)OC2CCCCC2)CC1", "note": "(centres unmarked) [compound 1, cyclohexyl 2-cyano-2-(3-(4-ethylpiperazin-1-yl)quinoxalin-2-yl)acetate]", "values": [
      {"measurement": "Kd", "setting": "[4]", "value": 3200, "unit": "nM"},
      {"measurement": "IC50", "setting": "[1]", "value": 10100, "unit": "nM"},
      {"measurement": "IC50", "setting": "[1]; [8]", "value": 12900, "unit": "nM"},
      {"measurement": "Kd", "setting": "[5]", "value": 1700, "unit": "nM"},
      {"measurement": "cell viability of HT-29", "setting": "[6]", "value": "inhibited"},
      {"measurement": "binding specificity in kinome-wide profiling", "setting": "[7]; 450 kinases tested at a single dose of 10 μM", "value": "remarkable specificity for compound binding to CSNK1A1"},
      {"measurement": "number of kinases bound", "setting": "[7]; out of over 400 kinases tested", "value": "six"}
    ]}
  ]
}
